Data as given in patent US12156883B2, “Bisphosphocin gel formulations and uses thereof” (Lakewood Amedex, Inc., priority 2017, dated 2024).
Entries after “also recorded” stand apart in the source; their conditions may differ.

System: methicillin resistant Staphylococcus aureus strain USA300 (TPPS 1056)
Assay: Staphylococcus aureus-induced murine dermal infection model
Format: in vivo
Settings: female SKH1 mice, topical 10% Nu-3 fatty alcohol-based gel pH 1.5, 4 h after challenge
Method: Female SKH1 mice ordered from Charles River Laboratories are acclimated to housing conditions and handled in accordance with Animal Use Protocol (AUP) number TP-18. The animals are acclimated for a minimum of 24 hours prior to bacterial challenge and are 6-8 weeks old on Day 0 of the experiment. Only animals deemed healthy are included in this study. Animals are fed irradiated Teklad Global Rodent Diet 2918 and water ad libitum. Mice are housed in static cages with irradiated Teklad ⅛″ corn cob bedding 7902 inside bioBubble® Clean Rooms that provide H.E.P.A. filtered air into the bubble environment at 100 complete air changes per hour. All treatments and infectious challenges are carried out in a BSL2 surgical suite. The environment is controlled to a temperature range of 74°±4° F. and a humidity range of 30-70%. […]
Immediately following tape stripping, each animal receives a topical application with approximately 6.0 log10 CFU per mouse in a volume of 100 μL spread in an area approximately 0.75″×0.75″. […] The final CFU count from the challenge suspension determined that 5.6 log10 CFU per mouse is delivered. […]
Following euthanasia, a section of excised skin approximately 0.5″×0.5″ is aseptically removed from the infected/treated area and transferred to vials with 2.0 mL of sterile water and weighed. […] Tissue pH is measured using litmus paper and recorded. […]

**Q.** With CCCCOP(=O)(O)OC[C@H]1OC(n2cc(C)c(=O)[nH]c2=O)C[C@@H]1OP(=O)(O)OCCCC (stereo partly drawn) [Nu-3, (2R,3S)-2-((butoxy(hydroxy)phosphoryl)oxy)methyl)-5-(5-methyl-2,4-dioxo-3,4-dihydropyrimidin-1(2H)-yl)tetrahydrofuran-2-yl) butyl hydrogen phosphate] as the compound, how does the “CFU burden compared to untreated control animals” value (5 and 12 hours post-challenge) read?
**A.** significant decreases; also recorded: significantly decreases

**Q.** What about the “CFU burden compared to vehicle-treated animals” value (all harvest time points) of the same compound?
**A.** significant decreases; also recorded: significantly decreases
